Assay results taken from ChEMBL document CHEMBL4706710, “Synthesis and evaluation of novel thiosemicarbazone and semicarbazone analogs with both anti-proliferative and anti-metastatic activities against triple negative breast cancer” (Bioorg Med Chem, 2021).
Activity calls are given as the source filed them. The calls are words filed in the database; no cut-off is given here.

Assays:
[1] = tested on: MCF7; experiment: Antiproliferative activity against human MCF7 cells assessed as reduction in cell viability after 48 hrs by MTT assay; type: functional, cell-based; settings: MCF7, 48 h
[2] = tested on: MDA-MB-231; experiment: Antiproliferative activity against human MDA-MB-231 cells assessed as reduction in cell viability after 48 hrs by MTT assay; type: functional, cell-based; settings: MDA-MB-231, 48 h
[3] = tested on: A549; experiment: Antiproliferative activity against human A549 cells assessed as reduction in cell viability after 48 hrs by MTT assay; type: functional, cell-based; settings: A549, 48 h
[4] = tested on: HT-29; experiment: Antiproliferative activity against human HT-29 cells assessed as reduction in cell viability after 48 hrs by MTT assay; type: functional, cell-based; settings: HT-29, 48 h
[5] = tested on: MDA-MB-231; experiment: Potency index, ratio of hecogenin IC50 to test compound IC50 for antiproliferative activity against human MDA-MB-231 cells; type: functional
[6] = tested on: MCF7; experiment: Potency index, ratio of hecogenin IC50 to test compound IC50 for antiproliferative activity against human MCF7 cells; type: functional
[7] = tested on: HUVEC; experiment: Cytotoxicity against human HUVEC cells assessed as reduction in cell viability after 48 hrs by MTT assay; type: cell-based
[8] = tested on: MDA-MB-231; experiment: Induction of apoptosis in human MDA-MB-231 cells assessed as increase in early apoptotic cells at 10 uM by annexin V-FITC/propidium iodide staining based flow cytometric analysis; type: functional, cell-based; settings: time 3-9 hrs, TDE = time-dependent effect
[9] = tested on: MDA-MB-231; experiment: Induction of apoptosis in human MDA-MB-231 cells assessed as increase in late apoptotic cells at 10 uM by annexin V-FITC/propidium iodide staining based flow cytometric analysis; type: functional, cell-based; settings: time 3-9 hrs, TDE = time-dependent effect
[10] = tested on: MDA-MB-231; experiment: Induction of apoptosis in human MDA-MB-231 cells assessed as viable cells at 10 uM after 3 hrs by annexin V-FITC/propidium iodide staining based flow cytometric analysis (reference value: 91.2%); type: functional; settings: read-out: Activity
[11] = tested on: MDA-MB-231; experiment: Induction of apoptosis in human MDA-MB-231 cells assessed as viable cells at 10 uM after 6 hrs by annexin V-FITC/propidium iodide staining based flow cytometric analysis (reference value: 91.2%); type: functional; settings: read-out: Activity
[12] = tested on: MDA-MB-231; experiment: Induction of apoptosis in human MDA-MB-231 cells assessed as viable cells at 10 uM after 9 hrs by annexin V-FITC/propidium iodide staining based flow cytometric analysis (reference value: 91.2%); type: functional; settings: read-out: Activity
[13] = tested on: MDA-MB-231; experiment: Induction of apoptosis in human MDA-MB-231 cells assessed as early apoptotic cells at 10 uM after 3 hrs by annexin V-FITC/propidium iodide staining based flow cytometric analysis (reference value: 2.7%); type: functional
[14] = tested on: MDA-MB-231; experiment: Induction of apoptosis in human MDA-MB-231 cells assessed as early apoptotic cells at 10 uM after 6 hrs by annexin V-FITC/propidium iodide staining based flow cytometric analysis (reference value: 2.7%); type: functional
[15] = tested on: MDA-MB-231; experiment: Induction of apoptosis in human MDA-MB-231 cells assessed as early apoptotic cells at 10 uM after 9 hrs by annexin V-FITC/propidium iodide staining based flow cytometric analysis (reference value: 2.7%); type: functional
[16] = tested on: MDA-MB-231; experiment: Induction of apoptosis in human MDA-MB-231 cells assessed as late apoptotic cells at 10 uM after 3 hrs by annexin V-FITC/propidium iodide staining based flow cytometric analysis (reference value: 3.1%); type: functional
[17] = tested on: MDA-MB-231; experiment: Induction of apoptosis in human MDA-MB-231 cells assessed as late apoptotic cells at 10 uM after 6 hrs by annexin V-FITC/propidium iodide staining based flow cytometric analysis (reference value: 3.1%); type: functional
[18] = tested on: MDA-MB-231; experiment: Induction of apoptosis in human MDA-MB-231 cells assessed as late apoptotic cells at 10 uM after 9 hrs by annexin V-FITC/propidium iodide staining based flow cytometric analysis (reference value: 3.1%); type: functional
[19] = tested on: MDA-MB-231; experiment: Induction of apoptosis in human MDA-MB-231 cells assessed as necrotic cells at 10 uM after 3 hrs by annexin V-FITC/propidium iodide staining based flow cytometric analysis (reference value: 3%); type: functional
[20] = tested on: MDA-MB-231; experiment: Induction of apoptosis in human MDA-MB-231 cells assessed as necrotic cells at 10 uM after 6 hrs by annexin V-FITC/propidium iodide staining based flow cytometric analysis (reference value: 3%); type: functional
[21] = tested on: MDA-MB-231; experiment: Induction of apoptosis in human MDA-MB-231 cells assessed as necrotic cells at 10 uM after 9 hrs by annexin V-FITC/propidium iodide staining based flow cytometric analysis (reference value: 3%); type: functional
[22] = tested on: MDA-MB-231; experiment: Induction of cell cycle arrest in human MDA-MB-231 cells assessed as accumulation at sub-G1 phase at 10 uM after 48 hrs by propidium iodide staining based flow cytometric analysis (reference value: 3.25%); type: functional
[23] = tested on: MDA-MB-231; experiment: Induction of cell cycle arrest in human MDA-MB-231 cells assessed as accumulation at sub-G1 phase at 20 uM after 48 hrs by propidium iodide staining based flow cytometric analysis (reference value: 3.25%); type: functional
[24] = tested on: MDA-MB-231; experiment: Induction of cell cycle arrest in human MDA-MB-231 cells assessed as accumulation at sub-G1 phase at 40 uM after 48 hrs by propidium iodide staining based flow cytometric analysis (reference value: 3.25%); type: functional
[25] = tested on: MCF7; experiment: Induction of cell cycle arrest in human MCF7 cells assessed as accumulation at sub-G1 phase at 10 uM after 48 hrs by propidium iodide staining based flow cytometric analysis (reference value: 3.04%); type: functional
[26] = tested on: MCF7; experiment: Induction of cell cycle arrest in human MCF7 cells assessed as accumulation at sub-G1 phase at 20 uM after 48 hrs by propidium iodide staining based flow cytometric analysis (reference value: 3.04%); type: functional
[27] = tested on: MCF7; experiment: Induction of cell cycle arrest in human MCF7 cells assessed as accumulation at sub-G1 phase at 40 uM after 48 hrs by propidium iodide staining based flow cytometric analysis (reference value: 3.04%); type: functional
[28] = tested on: MCF7; experiment: Induction of cell cycle arrest in human MCF7 cells assessed as accumulation at sub-G1 phase after 48 hrs by propidium iodide staining based flow cytometric analysis; type: functional; settings: dose 10-40 µM
[29] = tested on: MDA-MB-231; experiment: Induction of cell cycle arrest in human MDA-MB-231 cells assessed as accumulation at sub-G1 phase after 48 hrs by propidium iodide staining based flow cytometric analysis; type: functional; settings: dose 10-40 µM
[30] = tested on: MDA-MB-231; experiment: Inhibition of cell migration in human MDA-MB-231 cells at 20 uM after 20 hrs by inverted microscopic method; type: functional, cell-based
[31] = tested on: MDA-MB-231; experiment: Antiinvasive activity against in human MDA-MB-231 cells at 20 uM after 24 hrs by matrigel coated transwell assay; type: functional, cell-based

SMILES: CC(=O)O[C@H]1CC[C@@]2(C)[C@@H](CC[C@H]3[C@@H]4CC=C(/C(C)=N/NC(=S)Nc5ccc(C(F)(F)F)cc5)[C@@]4(C)C(=O)C[C@@H]32)C1
- IC50 [1]: 6.86 µM
- IC50 [2]: 11.8 µM
- IC50 [3]: 9.75 µM
- IC50 [4]: 11.3 µM

SMILES: CC(=O)O[C@H]1CC[C@@]2(C)[C@@H](CC[C@H]3[C@@H]4CC=C(/C(C)=N/NC(=S)Nc5ccccc5C)[C@@]4(C)C(=O)C[C@@H]32)C1
- IC50 [1]: 7.08 µM
- IC50 [2]: 14.1 µM
- IC50 [3]: 17.1 µM
- IC50 [4]: 13.2 µM

SMILES: CC(=O)O[C@H]1CC[C@@]2(C)[C@@H](CC[C@@H]3[C@@H]2CC(=O)N[C@]2(C)C(/C(C)=N/NC(N)=O)=CC[C@@H]32)C1
- IC50 [1]: 17.4 µM
- IC50 [2]: 19.2 µM
- IC50 [3]: 29 µM
- IC50 [4]: 28.5 µM

SMILES: CC(=O)O[C@H]1CC[C@@]2(C)[C@@H](CC[C@@H]3[C@@H]2CC(=O)N[C@]2(C)C(/C(C)=N/NC(=S)Nc4ccc(C(F)(F)F)cc4)=CC[C@@H]32)C1
- IC50 [1]: 22.7 µM
- IC50 [2]: 25.4 µM
- IC50 [3]: 36.3 µM
- IC50 [4]: 34.1 µM

SMILES: CC(=O)O[C@H]1CC[C@@]2(C)[C@@H](CC[C@@H]3[C@@H]2CC(=O)N[C@]2(C)C(/C(C)=N/NC(=O)Nc4ccccc4)=CC[C@@H]32)C1
- IC50 [1]: 35.8 µM
- IC50 [2]: > 40 µM
- IC50 [3]: > 40 µM
- IC50 [4]: > 40 µM

SMILES: CC(=O)O[C@H]1CC[C@@]2(C)[C@@H](CC[C@H]3[C@@H]4CC=C(/C(C)=N/NC(=S)Nc5ccccc5)[C@@]4(C)C(=O)C[C@@H]32)C1
- IC50 [1]: 2.16 µM
- IC50 [2]: 10.4 µM
- IC50 [3]: 7.68 µM
- IC50 [4]: 10.6 µM
- Ratio IC50 [5]: >10
- Ratio IC50 [6]: >10

SMILES: CC(=O)O[C@H]1CC[C@@]2(C)[C@@H](CC[C@@H]3[C@@H]2CC(=O)N[C@]2(C)C(/C(C)=N/NC(=S)Nc4ccccc4C)=CC[C@@H]32)C1
- IC50 [1]: 29.6 µM
- IC50 [2]: > 40 µM
- IC50 [3]: > 40 µM
- IC50 [4]: 37.5 µM

SMILES: CC(=O)O[C@H]1CC[C@@]2(C)[C@@H](CC[C@H]3[C@@H]4CC=C(/C(C)=N/NC(N)=S)[C@@]4(C)C(=O)C[C@@H]32)C1
- IC50 [1]: 1.59 µM
- IC50 [2]: 2.67 µM
- IC50 [3]: 5.44 µM
- IC50 [4]: 6.72 µM
- IC50 [7]: > 100 µM
- Activity [8]: Tde
- Activity [9]: Tde
- viability at 10 µM [10]: 77.4%
- viability at 10 µM [11]: 74.1%
- viability at 10 µM [12]: 68.8%
- Activity [13]: 5.9%
- Activity [14]: 6.3%
- Activity [15]: 7.8%
- Activity [16]: 9.5%
- Activity [17]: 12.1%
- Activity [18]: 15.2%
- Activity [19]: 7.2%
- Activity [20]: 7.5%
- Activity [21]: 8.2%
- Activity [22]: 14.82%
- Activity [23]: 39.79%
- Activity [24]: 54.95%
- Activity [25]: 25.52%
- Activity [26]: 44.95%
- Activity [27]: 67.72%
- Activity [28]: Dose-dependent effect
- Activity [29]: Dose-dependent effect
- inhibition [30]: Active
- Activity [31]: Active
- Ratio IC50 [5]: >10
- Ratio IC50 [6]: >10

SMILES: CC(=O)O[C@H]1CC[C@@]2(C)[C@@H](CC[C@@H]3[C@@H]2CC(=O)N[C@]2(C)C(/C(C)=N/NC(=S)Nc4ccccc4)=CC[C@@H]32)C1
- IC50 [1]: 19.1 µM
- IC50 [2]: 25.9 µM
- IC50 [3]: 35.1 µM
- IC50 [4]: 34 µM

SMILES: C[C@@H]1CC[C@@]2(OC1)O[C@H]1C[C@H]3[C@@H]4CC[C@H]5C[C@@H](O)CC[C@]5(C)[C@H]4CC(=O)[C@]3(C)[C@H]1[C@@H]2C
- IC50 [1]: 28.7 µM
- IC50 [2]: 31.2 µM
- IC50 [3]: > 40 µM
- IC50 [4]: > 40 µM
- IC50 [7]: > 100 µM

SMILES: CC(=O)O[C@H]1CC[C@@]2(C)[C@@H](CC[C@H]3[C@@H]4CC=C(/C(C)=N/NC(N)=O)[C@@]4(C)C(=O)C[C@@H]32)C1
- IC50 [1]: 1.74 µM
- IC50 [2]: 5.89 µM
- IC50 [3]: 6.84 µM
- IC50 [4]: 7.69 µM
- IC50 [7]: > 100 µM
- Ratio IC50 [5]: >10
- Ratio IC50 [6]: >10

SMILES: CC(=O)O[C@H]1CC[C@@]2(C)[C@@H](CC[C@@H]3[C@@H]2CC(=O)N[C@]2(C)C(/C(C)=N/NC(N)=S)=CC[C@@H]32)C1
- IC50 [1]: 15.1 µM
- IC50 [2]: 16.6 µM
- IC50 [3]: 28.9 µM
- IC50 [4]: 27 µM

SMILES: CC(=O)O[C@H]1CC[C@@]2(C)[C@@H](CC[C@H]3[C@@H]4CC=C(/C(C)=N/NC(=O)Nc5ccccc5)[C@@]4(C)C(=O)C[C@@H]32)C1
- IC50 [1]: 11.6 µM
- IC50 [2]: 15.5 µM
- IC50 [3]: 22.7 µM
- IC50 [4]: 17.6 µM
